This note sets out measurements from patent US20250262297A1, “ALLERGY ANTIGEN AND EPITOPE THEREOF” (HOYU CO., LTD., priority 2017, published 2025).

The first test has as its system IgE antibody from one patient having allergies to a soybean, a peach and an apple. The experiment in a line: ELISA of biotinylated peptides, study on cross-reactivity. The test is classed as binding, human. To be noted: FIG. 6. On the procedure: The binding activity of peptides comprising the amino acid sequences of SEQ ID NOS: 871, 984 and 985 against an IgE antibody from one patient having allergies to a soybean, a peach and an apple was confirmed by ELISA. The peptides were synthesized such that the peptides were N-terminally biotinylated by the Fmoc method.
To be specific, ELISA was carried out according to the following procedure. • (1) The concentrations of the biotinylated peptides were adjusted to 1 μg/mL with PBST. • (2) Each peptide solution was added at 40 μL to each well of a 384-well plate coated with streptavidin, and shaken at room temperature for one hour. After collection of the solution, the wells were washed with PBS five times. • (3) A 1:5 dilution of Blocking one (diluted with MQ) was added at 40 μL thereto and shaken at room temperature for 15 minutes. After removal of the solution, the wells were washed with PBS five times. • (4) A diluted serum solution (1:10, diluting solution: Blocking one produced by Nacalai Tesque, Inc.) was added at 40 μL thereto and shaken at room temperature for one hour. After removal of the solution, the wells were washed with PBS five times. • (5) A diluted secondary antibody solution (1:5000, diluting solution: Blocking one produced by Nacalai Tesque, Inc.) was added at 40 μL thereto and shaken at room temperature for one hour. […] Absorbance at 450 nm was measured.
(In an ELISA, binding on a coated surface is turned into a signal by an enzyme label.)
Turning to “SEQ ID NO: 871: amino acids 1-15 of SEQ ID NO: 495 (seed biotin-containing protein SBP65-like isoform X1) (MASEQMPRRENNSNR; epitope)”, the “binding to IgE antibody from the allergic patient compared with IgE antibody from a healthy subject” value was “bound more strongly”.

The test is the same for the next values; noted with them: peptide 1 μg/mL, serum 1:10, absorbance at 450 nm, FIG. 6.
Turning to “SEQ ID NO: 871: amino acids 1-15 of SEQ ID NO: 495 (seed biotin-containing protein SBP65-like isoform X1) (MASEQMPRRENNSNR; epitope)”, the “binding activity against the IgE antibody from the patient” value is on record as “exhibited binding activity”.

A further test has as its system IgE antibody present in the serum of a patient allergic to a soybean. The experiment in a line: Epitope mapping and overlapping peptide fragments on SPOT membrane, immunoblotting. The test is classed as binding, human. As to conditions: procedure of (B), overlapping. As to the method:
Epitope mapping was carried out using a library of overlapping peptide fragments (length: 15 amino acids) corresponding to the sequences of proteins bound patient-specifically to IgE antibodies in serum, which were obtained as a result of 2D-western of soybeans.
The peptides to be synthesized were shifted by 10 amino acids.
For preparation of peptide arrays, peptide synthesis of interest was carried out in incremental steps on a modified cellulose membrane by the Intavis SPOT synthesis technique, which is a technique of synthesizing peptides of interest through 9-fluorenylmethoxycarbonyl (Fmoc) chemical reaction, using an automated synthesis apparatus (Intavis MultiPep RS). […]
The presence or absence of binding, to each peptide fragment, of an IgE antibody present in the serum of a patient allergic to a soybean was measured by immunoblotting using the membrane on which the peptide fragments were synthesized by SPOT. […]
Thereafter, for the sequences of peptides bound patient-specifically to IgE antibodies in serum in the epitope mapping described above in (A), a library of overlapping peptide fragments (length: 10 amino acids) was obtained as sequences having the sequences of these peptides as well as additional sequences subsequent to the peptides in the amino acid sequences of antigen proteins on which the epitopes were detected. […]
On the technique in general: Immunoblotting shows a protein as a band on a membrane.
Take “SEQ ID NO: 871: amino acids 1-15 of SEQ ID NO: 495 (seed biotin-containing protein SBP65-like isoform X1) (MASEQMPRRENNSNR; epitope)”: the “identified as epitope (common sequence of peptides bound to IgE antibodies from allergic patients)” value is on record as “identified as epitopes”.

In the next test the test system is IgE antibodies from soybean-allergic patients. The test is described as follows: Immunoblotting of two-dimensional electrophoresis pattern of soybean proteins with patient serum. To be noted: spot in 2D electrophoresis gel of soybean proteins; patient serum compared with healthy subject serum. The test is classed as binding, human. An excerpt:
Transfer to membrane was done using the following transfer system and transfer buffer. • Transfer system: XCell SureLock Mini-Cell and XCell II Blot Module (produced by Life Technologies) • Transfer buffer: NuPAGE Transfer Buffer (X20) (produced by Life Technologies), used in a form diluted 20-fold with milliQ water.
To be specific, proteins in the two-dimensional electrophoresis gels were transferred to a membrane (PVDF membrane) according to the following procedure. • (1) The PVDF membrane was immersed in 100% methanol followed by milliQ water, and then moved into the transfer buffer to hydrophilize the PVDF membrane. • (2) After sponge, filter paper, the gels treated by second-dimensional SDS-PAGE, the hydrophilized PVDF membrane, filter paper, and sponge were put in place in this order, the transfer system was energized at a constant voltage of 30 V for one hour.
Immunoblotting of the membrane was carried out using, as a primary antibody, a serum sample from a patient with a soybean allergy or a serum sample from a healthy subject.
Immunoblotting of the membrane was carried out according to the following procedure. • (1) The transferred membrane was shaken in a 5% skim milk/PBST solution (a PBS buffer containing 0.3% Tween 20 nonionic surfactant) at room temperature for one hour. • (2) The membrane was left to stand in a solution of 3% primary antibody serum in 5% skim milk/PBST at room temperature for one hour. • (3) The membrane was washed with a PBST solution (5 min.×3 times). • (4) The membrane was left to stand in a 1:2500 dilution of the secondary antibody, anti-human IgE-HRP (horseradish peroxidase), with a 3% skim milk/PBST solution at room temperature for one hour. • (5) The membrane was washed with a PBST solution (5 min.×3 times). • (6) The membrane was left to stand in Pierce Western Blotting Substrate Plus (produced by Thermo Fisher Scientific) for 5 minutes.
The membrane obtained through the foregoing series of treatments was subjected to fluorescent image scanning on Typhoon 9400 (produced by GE).
The immunoblots obtained with the serum from the soybean-allergic patient were compared with those obtained with the control serum from the healthy subject.
Take “UTP-glucose-1-phosphate uridylyltransferase [Spot 15α]”: the “specific binding to IgE antibodies from soybean-allergic patients” value (“specific binding to IgE antibodies” for short) was “specific binding”.
For “seed biotin-containing protein SBP65-like isoform X1 [Spot 38α]”, the “specific binding to IgE antibodies” value was “specific binding”.
Take heat shock cognate protein 80 [Spot 2α]: the “specific binding to IgE antibodies” value was “specific binding”.
For methionine synthase [Spot 7α], the “specific binding to IgE antibodies” value is “specific binding”.
On the same count and under the same terms, for “embryo-specific urease isoform X1 [Spot 4α]” the value was “specific binding”; for elongation factor 1-alpha [Spot 35α], “specific binding”; for “lysine-tRNA ligase, cytoplasmic-like isoform X2 [Spot 9α]”, “specific binding”.
“glyceraldehyde-3-phosphate dehydrogenase isoform X1 [Spot 29α]”: the “specific binding to IgE antibodies” value is reported as “specific binding”.
Still for that read-out and setting: next, “pyrophosphate-fructose 6-phosphate 1-phosphotransferase subunit alpha-like [Spot 12α]”: “specific binding”.
